The text below walks through data of US20190010158A1, “ANTITUMOR EFFECT POTENTIATOR COMPRISING PYRROLOPYRIMIDINE COMPOUND” (TAIHO PHARMACEUTICAL CO., LTD, priority 2015, published 2019).

Test [1] has as its system tumor cell lines shown in Table 42. Briefly: Example 11: combined use with antimetabolite, cell growth inhibition test (IC50 ratio, CI). The class given is cell-based. The note with it: for Comprehensive Evaluation: combined use with Reference Example Compound 55.
In test [2] the test system is tumor cell lines shown in Table 26. Briefly: Example 3: combined use with serine-threonine kinase inhibitor, cell growth inhibition test (IC50 ratio, CI). The note with it: for Comprehensive Evaluation: combined use with Reference Example Compound 55.
Test [3] relates to human acute T lymphoblastic leukemia CCRF-CEM cell lines. Briefly: Cell growth inhibition 1 (CellTiter-Glo). It counts as cell-based. The note with it: culture with test compound 72 hours.
Setting [4] is: TMD-8, IC50 of Reference Example Compound 55 : IC50 of other compound = 1:value.
The mark [5] stands for this setting: A549, IC50 of Reference Example Compound 55 : IC50 of other compound = 1:value.

“And” between values parts separate entries of the source, which are not always exact repeats. Identical values can stand only once. Like-named read-outs stand apart in the source and are kept apart here.

With `Sc1ncnc2nc[nH]c12` [6-Mercaptopurine, 6-mercaptopurine], in test [1] (MM.1S, IC50 of Reference Example Compound 55 : IC50 of other compound = 1:value), the “IC50 Ratio” value worked out at 169. In addition, the CI was 0.61 in test [1] (MM.1S, Reference Example Compound 55:other compound 1:100, at ED50) and 0.80 in test [1] (MM.1S, Reference Example Compound 55:other compound 1:300, at ED50). Also, in test [1] (MM.1S), the “Comprehensive Evaluation” value is on record as “Moderate”.
Turning to `Nc1ccn([C@@H]2O[C@H](CO)[C@@H](O)[C@@H]2O)c(=O)n1` [Cytarabine, cytarabine], in test [1], the CI is 0.52 and 0.66; the “IC50 Ratio” value worked out at 48. The “Comprehensive Evaluation” value in test [1] (HCT116) is “Synergism (0.3-0.7)”.
As for `C[C@H](Nc1ncnc2nc[nH]c12)c1cc2cccc(Cl)c2c(=O)n1-c1ccccc1` [Duvelisib, duvelisib], in test [2] (setting [4]), the “IC50 Ratio” value came to 2. Also, the CI is 0.42 in test [2] (TMD-8, Reference Example Compound 55:other compound 1:1.2, at ED50) and 0.43 in test [2] (TMD-8, Reference Example Compound 55:other compound 1:3.7, at ED50). The “Comprehensive Evaluation” value in test [2] (TMD-8) was “Synergism (0.3-0.7)”.
`CO[C@H]1C[C@@H]2CC[C@@H](C)[C@@](O)(O2)C(=O)C(=O)N2CCCC[C@H]2C(=O)O[C@H]([C@H](C)C[C@@H]2CC[C@@H](OCCO)[C@H](OC)C2)CC(=O)[C@H](C)/C=C(\C)[C@@H](O)[C@@H](OC)C(=O)[C@H](C)C[C@H](C)/C=C/C=C/C=C/1C` [Everolimus, everolimus]: the “IC50 Ratio” value in test [2] (VMRC-RCW, IC50 of Reference Example Compound 55 : IC50 of other compound = 1:value) is on record as 6. Further, the “Comprehensive Evaluation” value in test [2] (VMRC-RCW) is “Synergism (0.3-0.7)”.
As to `O=c1[nH]cc(F)c(=O)[nH]1` [Fluorouracil, fluorouracil], in test [1] (A431, IC50 of Reference Example Compound 55 : IC50 of other compound = 1:value), the “IC50 Ratio” value came to 0.8. Moreover, the CI is 0.44 in test [1] (A431, Reference Example Compound 55:other compound 1:0.56, at ED50) and 0.20 in test [1] (A431, Reference Example Compound 55:other compound 1:1.67, at ED50). In addition, the “Comprehensive Evaluation” value in test [1] (A431) is “Synergism (0.3-0.7)”.
As for `CC[C@H](Nc1ncnc2[nH]cnc12)c1nc2cccc(F)c2c(=O)n1-c1ccccc1` [Idelalisib, idelalisib], the “IC50 Ratio” value in test [2] (setting [4]) is recorded as 23. For the same compound, the CI was determined as 0.57 in test [2] (TMD-8, Reference Example Compound 55:other compound 1:11, at ED50) and 0.64 in test [2] (TMD-8, Reference Example Compound 55:other compound 1:33, at ED50). Besides, the “Comprehensive Evaluation” value in test [2] (TMD-8) was “Synergism (0.3-0.7)”.
Turning to `NC1(c2ccc(-c3nc4ccn5c(=O)[nH]nc5c4cc3-c3ccccc3)cc2)CCC1` [MK2206], the “IC50 Ratio” value in test [2] (setting [5]) is reported as 5. Further, the CI in test [2] (A549, Reference Example Compound 55:other compound 1:3, at ED50) was found to be 0.31; in test [2] (A549, Reference Example Compound 55:other compound 1:9, at ED50), 0.35. Besides, in test [2] (A549), the “Comprehensive Evaluation” value is on record as “Synergism (0.3-0.7)”.
Take `CO[C@H]1C[C@@H]2CC[C@@H](C)[C@@](O)(O2)C(=O)C(=O)N2CCCC[C@H]2C(=O)O[C@H]([C@H](C)C[C@@H]2CC[C@@H](O)[C@H](OC)C2)CC(=O)[C@H](C)/C=C(\C)[C@@H](O)[C@@H](OC)C(=O)[C@H](C)C[C@H](C)/C=C/C=C/C=C/1C` [Rapamycin, rapamycin]: in test [2] (setting [5]), the “IC50 Ratio” value is reported as 0.1. For the same compound, the “Comprehensive Evaluation” value in test [2] (A549) is on record as “Synergism (0.3-0.7)”.
The IC50 is the concentration needed to halve the response being measured. Lower therefore signals higher potency. `CCCOc1cccc(F)c1C#Cc1cn([C@@H]2O[C@H](CNS(N)(=O)=O)[C@@H](O)[C@H]2O)c2ncnc(N)c12` [Reference Example 60, 4-Amino-7-[(2R,3R,4S,5R)-3,4-dihydroxy-5-[(sulfamoylamino)methyl]tetrahydrofuran-2-yl]-5-[2-(2-fluoro-6-propoxy-phenyl)ethynyl]pyrrolo[2,3-d]pyrimidine] had a half-maximal inhibitory concentration (IC50) in test [3] of 0.0051 µM.
With `CCSc1cccc(F)c1C#Cc1cn([C@@H]2O[C@H](CNS(N)(=O)=O)[C@@H](O)[C@H]2O)c2ncnc(N)c12` [Reference Example 66, 4-Amino-7-[(2R,3R,4S,5R)-3,4-dihydroxy-5-[(sulfamoylamino)methyl]tetrahydrofuran-2-yl]-5-[2-(2-ethylsulfanyl-6-fluoro-phenyl)ethynyl]pyrrolo[2,3-d]pyrimidine], in test [3], the half-maximal inhibitory concentration (IC50) came out at 0.0043 µM.
Still for that read-out and setting: with `CCS(=O)(=O)c1cc(N2CCCC2)cc(F)c1C#Cc1cn([C@@H]2O[C@H](CNS(N)(=O)=O)[C@@H](O)[C@H]2O)c2ncnc(N)c12` [Reference Example 70, 4-Amino-7-[(2R,3R,4S,5R)-3,4-dihydroxy-5-[(sulfamoylamino)methyl]tetrahydrofuran-2-yl]-5-[2-(2-ethylsulfonyl-6-fluoro-4-pyrrolidin-1-yl-phenyl)ethynyl]pyrrolo[2,3-d]pyrimidine] the figure was 0.015 µM; with `COc1cncc(F)c1C#Cc1cn([C@@H]2O[C@H](CNS(N)(=O)=O)[C@@H](O)[C@H]2O)c2ncnc(N)c12` [Reference Example 71, 4-Amino-7-[(2R,3R,4S,5R)-3,4-dihydroxy-5-[(sulfamoylamino)methyl]tetrahydrofuran-2-yl]-5-[2-(3-fluoro-5-methoxy-4-pyridyl)ethynyl]pyrrolo[2,3-d]pyrimidine], 0.045 µM.
The same measure, in the same setting: with `CCS(=O)(=O)c1cc(N2CC[C@@H](O)C2)cc(F)c1C#Cc1cn([C@@H]2O[C@H](CNS(N)(=O)=O)[C@@H](O)[C@H]2O)c2ncnc(N)c12` [Reference Example 72, 4-Amino-7-[(2R,3R,4S,5R)-3,4-dihydroxy-5-[(sulfamoylamino)methyl]tetrahydrofuran-2-yl]-5-[2-[2-ethylsulfonyl-6-fluoro-4-[(3R)-3-hydroxypyrrolidin-1-yl]phenyl]ethynyl]pyrrolo[2,3-d]pyrimidine] the figure was 0.088 µM; with `Nc1ncnc2c1c(C#Cc1c(F)cccc1Cl)cn2[C@@H]1O[C@H](CNS(N)(=O)=O)[C@@H](O)[C@H]1O` [Reference Example 73, 4-Amino-5-[2-(2-chloro-6-fluoro-phenyl)ethynyl]-7-[(2R,3R,4S,5R)-3,4-dihydroxy-5-[(sulfamoylamino)methyl]tetrahydrofuran-2-yl]pyrrolo[2,3-d]pyrimidine], 0.071 µM.
Still for that read-out and setting: the value for `Nc1ncnc2c1c(C#Cc1cccc3c1S(=O)(=O)CCC3)cn2[C@@H]1O[C@H](CNS(N)(=O)=O)[C@@H](O)[C@H]1O` [Reference Example 83, 4-Amino-7-[(2R,3R,4S,5R)-3,4-dihydroxy-5-[(sulfamoylamino)methyl]tetrahydrofuran-2-yl]-5-[2-(1,1-dioxo-3,4-dihydro-2H-thiochromen-8-yl)ethynyl]pyrrolo[2,3-d]pyrimidine] was 0.056 µM; that for `Nc1ncnc2c1c(C#Cc1c(F)cccc1S(N)(=O)=O)cn2[C@@H]1O[C@H](CNS(N)(=O)=O)[C@@H](O)[C@H]1O` [Reference Example 84, 2-[2-[4-Amino-7-[(2R,3R,4S,5R)-3,4-dihydroxy-5-[(sulfamoylamino)methyl]tetrahydrofuran-2-yl]pyrrolo[2,3-d]pyrimidin-5-yl]ethynyl]-3-fluoro-benzenesulfonamide] was 0.23 µM; that for `N#Cc1cccc(F)c1C#Cc1cn([C@@H]2O[C@H](CNS(N)(=O)=O)[C@@H](O)[C@H]2O)c2ncnc(N)c12` [Reference Example 85, 4-Amino-5-[2-(2-cyano-6-fluoro-phenyl)ethynyl]-7-[(2R,3R,4S,5R)-3,4-dihydroxy-5-[(sulfamoylamino)methyl]tetrahydrofuran-2-yl]pyrrolo[2,3-d]pyrimidine] was 0.038 µM.
In test [3], `Nc1ncnc2c1c(C#Cc1c(F)cccc1OCC1CC1)cn2[C@@H]1O[C@H](CNS(N)(=O)=O)[C@@H](O)[C@H]1O` [Reference Example 86, 4-Amino-5-[2-[2-(cyclopropylmethoxy)-6-fluoro-phenyl]ethynyl]-7-[(2R,3R,4S,5R)-3,4-dihydroxy-5-[(sulfamoylamino)methyl]tetrahydrofuran-2-yl]pyrrolo[2,3-d]pyrimidine] yielded an IC50 of 0.0055 µM.
The same measure, in the same setting: with `CSc1cccc(F)c1C#Cc1cn([C@@H]2C[C@H](CNS(N)(=O)=O)[C@@H](O)[C@H]2O)c2ncnc(N)c12` [Reference Example 98, 4-Amino-7-[(1R,2S,3R,4R)-2,3-dihydroxy-4-[(sulfamoylamino)methyl]cyclopentyl]-5-[2-(2-fluoro-6-methylsulfanyl-phenyl)ethynyl]pyrrolo[2,3-d]pyrimidine] the figure was 0.0073 µM; with `Nc1ncnc2c1c(C#Cc1c(F)cc(N3CC[C@@H](O)C3)cc1F)cn2[C@@H]1C[C@H](CNS(N)(=O)=O)[C@@H](O)[C@H]1O` [Reference Example 120, 4-Amino-5-[2-[2,6-difluoro-4-[(3R)-3-hydroxypyrrolidin-1-yl]phenyl]ethynyl]-7-[(1R,2S,3R,4R)-2,3-dihydroxy-4-[(sulfamoylamino)methyl]cyclopentyl]pyrrolo[2,3-d]pyrimidine], 0.035 µM; with `Nc1ncnc2c1c(C#Cc1cccc3c1S(=O)(=O)CCC3)cn2[C@@H]1C[C@H](CNS(N)(=O)=O)[C@@H](O)[C@H]1O` [Reference Example 123, 4-Amino-7-[(1R,2S,3R,4R)-2,3-dihydroxy-4-[(sulfamoylamino)methyl]cyclopentyl]-5-[2-(1,1-dioxo-3,4-dihydro-2H-thiochromen-8-yl)ethynyl]pyrrolo[2,3-d]pyrimidine], 0.097 µM.
Consider `CC[C@@H]1C(=O)N(C)c2cnc(Nc3ccc(C(=O)N[C@H]4CC[C@H](N5CCN(CC6CC6)CC5)CC4)cc3OC)nc2N1C(C)C` [Volasertib, volasertib], for which the “IC50 Ratio” value in test [2] (HL-60, IC50 of Reference Example Compound 55 : IC50 of other compound = 1:value) is on record as 14. The CI in test [2] (HL-60, Reference Example Compound 55:other compound 1:11, at ED50) turned out to be 0.95; in test [2] (HL-60, Reference Example Compound 55:other compound 1:33, at ED50), 0.82. Besides, the “Comprehensive Evaluation” value in test [2] (HL-60) is reported as “Additive (0.9-1.10)”.
As to AZD5363, in test [2], the CI is 0.33 and 0.38; the “IC50 Ratio” value turned out to be 67.
